# Experimental data from patent publication US20050239899A1, “Beta-secretase inhibitors” (priority 2002, published 2005).
# Key:
# [1] = target: T1, rhBACE (Homo sapiens, UniProt P56817); test: Fluorescence BACE assay; assay type: biochemical; details: EDANS/Dabcyl peptide substrate, pH 5, 2 hours at 37 C
# T1 construct: purchased R&D systems 931-AS
# Method: The inhibitory activity of the compounds of the invention was shown in an in vitro assay, namely a fluorescence BACE assay.
# The assay was set up in triplicate wells of 96 well black plate. rhBACE was diluted to 1 unit/well in […] (PBS +0.5% Triton-X 100, pH 5). BACE enzyme (obtained from R&D systems (ca.No. 931-AS), reference: Vasser et al., 1999, Science 286, 735-741) was incubated with various concentrations of inhibitor compound (10 nM to 500 µM) for 5 min; Reaction was started by adding peptide substrate (obtained from BACHEM (cat. No. M-2470), reference: Ermolieff et al., Biochemistry 39 (2000) 12450-56) with EDANS/Dabcyl labels. After incubation for 2 hours at 37 C the results were read in fluoroplate reader at 355 nm/486 nm.
# [2] = test system: cells; test: cellular assay (activity in cells); assay type: cell-based
# Description: As combined pharmacophore, for example, a combination of common pharmacophore for aspartyl proteases and a surface-based (surf2lead®) pharmacophore of the crystallized beta-secretase:OM922 complex can be used. For the common pharmacophore of the aspartyl proteases the active center was employed for generation of the pharmacophore. For the surf2lead approach the surface of the active center of the beta-secretase: OM922 complex crystallized with inhibitor was used for generation of the pharmacophore. A query for PHACIR screening was generated from a combination of the two pharmacophores. The compounds of the focused library identified by virtual screening then can be subjected to an in vitro assay, e.g. a fluorescence BACE assay, or a cellular assay in order to determine its possible inhibitory action.
# T1 sequence (P56817 46-501): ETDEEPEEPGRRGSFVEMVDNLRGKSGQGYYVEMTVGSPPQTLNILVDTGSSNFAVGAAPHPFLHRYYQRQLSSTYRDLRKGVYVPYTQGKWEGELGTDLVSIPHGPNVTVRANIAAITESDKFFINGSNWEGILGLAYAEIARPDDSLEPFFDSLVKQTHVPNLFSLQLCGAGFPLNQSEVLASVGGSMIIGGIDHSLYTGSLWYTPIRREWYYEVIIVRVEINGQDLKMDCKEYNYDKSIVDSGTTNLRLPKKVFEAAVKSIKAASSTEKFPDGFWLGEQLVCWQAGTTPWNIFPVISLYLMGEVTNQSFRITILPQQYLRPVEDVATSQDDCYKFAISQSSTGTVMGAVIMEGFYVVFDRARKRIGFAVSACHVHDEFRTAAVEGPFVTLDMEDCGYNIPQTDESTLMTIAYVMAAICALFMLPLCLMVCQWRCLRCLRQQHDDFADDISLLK
SMILES,IC50 [1] [µM],activity in cells / cell permeability [2]
C/C(=N\OC(=O)c1c(-c2c(Cl)cccc2Cl)noc1C)c1ccccc1O [ID4],140 to 170,–
Oc1c(Cl)cc(Cl)cc1/C=N/Nc1ncnc2sc3c(c12)CCCC3 [ID5],53,–
C/C(=N\Nc1ccccc1)c1cc(Cl)cc(Cl)c1O [ID7],14.4,especially cell-permeable active compounds
C=CCn1c(SCc2ccc(Cl)cc2)nc2sc3c(c2c1=N)CCCC3 [ID3],10,especially cell-permeable active compounds
O=[N+]([O-])c1cc(C(F)(F)F)cc([N+](=O)[O-])c1N/N=C/c1cc(Cl)cc(Cl)c1O [ID6],39.3,–
O=C(Nc1cc(-c2ccc(Cl)cc2)nn1-c1ccc(I)cc1)C1CCC1 [ID1],45,–
Oc1c(Cl)cc(Cl)cc1/C=N/Nc1c(Cl)cncc1Cl [ID2],29,–
